From ChEMBL document CHEMBL1154057, “Synthesis and antibacterial activity of novel 15-membered macrolide derivatives: 4''-carbamate, 11,12-cyclic carbonate-4''-carbamate and 11,4''-di-O-arylcarbamoyl analogs of azithromycin” (2009)
Values after ≈ are worked out from the molar mass of the structure shown.

Key:
Streptococcus pneumoniae [1] = assay: Antibacterial activity against erythromycin-resistant Streptococcus pneumoniae AB11 encoded by erm and mef gene
Streptococcus pneumoniae [2] = assay: Antibacterial activity against erythromycin-resistant Streptococcus pneumoniae B1 encoded by erm gene
Streptococcus pneumoniae [3] = assay: Antibacterial activity against erythromycin-susceptible Streptococcus pneumoniae ATCC 49619
Streptococcus pneumoniae [4] = assay: Antibacterial activity against erythromycin-resistant Streptococcus pneumoniae A22072 encoded by mef gene

SMILES	MIC (Streptococcus pneumoniae [1])	MIC (Streptococcus pneumoniae [2])	MIC (Streptococcus pneumoniae [3])	MIC (Streptococcus pneumoniae [4])
CC[C@H]1OC(=O)[C@H](C)[C@@H](O[C@H]2C[C@@](C)(OC)[C@@H](OC(=O)NCc3ccc(OC)cc3)[C@H](C)O2)[C@H](C)[C@@H](O[C@@H]2O[C@H](C)C[C@H](N(C)C)[C@H]2O)[C@@](C)(O)C[C@@H](C)CN(C)[C@H](C)[C@H]2OC(=O)O[C@@]21C	16 µg/mL (≈ 17.1 µM)	8 µg/mL (≈ 8.53 µM)	< 0.03 µg/mL	0.25 µg/mL (≈ 0.266 µM)
CCCNC(=O)O[C@H]1[C@H](C)O[C@@H](O[C@H]2[C@H](C)[C@@H](O[C@@H]3O[C@H](C)C[C@H](N(C)C)[C@H]3O)[C@@](C)(O)C[C@@H](C)CN(C)[C@H](C)[C@H]3OC(=O)O[C@]3(C)[C@@H](CC)OC(=O)[C@@H]2C)C[C@@]1(C)OC	16 µg/mL (≈ 18.6 µM)	16 µg/mL (≈ 18.6 µM)	0.06 µg/mL (≈ 0.0698 µM)	0.12 µg/mL (≈ 0.14 µM)
CC[C@H]1OC(=O)[C@H](C)[C@@H](O[C@H]2C[C@@](C)(OC)[C@@H](OC(=O)NCCc3ccccc3)[C@H](C)O2)[C@H](C)[C@@H](O[C@@H]2O[C@H](C)C[C@H](N(C)C)[C@H]2O)[C@@](C)(O)C[C@@H](C)CN(C)[C@H](C)[C@H]2OC(=O)O[C@@]21C	2 µg/mL (≈ 2.17 µM)	8 µg/mL (≈ 8.68 µM)	0.06 µg/mL (≈ 0.0651 µM)	0.06 µg/mL (≈ 0.0651 µM)
CCCCNC(=O)O[C@H]1[C@H](C)O[C@@H](O[C@H]2[C@H](C)[C@@H](O[C@@H]3O[C@H](C)C[C@H](N(C)C)[C@H]3O)[C@@](C)(O)C[C@@H](C)CN(C)[C@H](C)[C@H]3OC(=O)O[C@]3(C)[C@@H](CC)OC(=O)[C@@H]2C)C[C@@]1(C)OC	16 µg/mL (≈ 18.3 µM)	8 µg/mL (≈ 9.15 µM)	0.12 µg/mL (≈ 0.137 µM)	1 µg/mL (≈ 1.14 µM)
CC[C@H]1OC(=O)[C@H](C)[C@@H](O[C@H]2C[C@@](C)(OC)[C@@H](OC(=O)NCc3ccc(F)cc3)[C@H](C)O2)[C@H](C)[C@@H](O[C@@H]2O[C@H](C)C[C@H](N(C)C)[C@H]2O)[C@@](C)(O)C[C@@H](C)CN(C)[C@H](C)[C@@H](OC(=O)NCCc2ccccc2)[C@]1(C)O	32 µg/mL (≈ 30.6 µM)	0.25 µg/mL (≈ 0.239 µM)	< 0.03 µg/mL	0.06 µg/mL (≈ 0.0573 µM)
CC[C@H]1OC(=O)[C@H](C)[C@@H](O[C@H]2C[C@@](C)(OC)[C@@H](OC(=O)NCCc3ccccc3Cl)[C@H](C)O2)[C@H](C)[C@@H](O[C@@H]2O[C@H](C)C[C@H](N(C)C)[C@H]2O)[C@@](C)(O)C[C@@H](C)CN(C)[C@H](C)[C@@H](OC(=O)NCCc2ccc(O)cc2)[C@]1(C)O	16 µg/mL (≈ 14.6 µM)	0.25 µg/mL (≈ 0.229 µM)	< 0.03 µg/mL	0.06 µg/mL (≈ 0.0549 µM)
CC[C@H]1OC(=O)[C@H](C)[C@@H](O[C@H]2C[C@@](C)(OC)[C@@H](OC(=O)NCCc3ccc(O)cc3)[C@H](C)O2)[C@H](C)[C@@H](O[C@@H]2O[C@H](C)C[C@H](N(C)C)[C@H]2O)[C@@](C)(O)C[C@@H](C)CN(C)[C@H](C)[C@@H](OC(=O)NCCc2ccccc2Cl)[C@]1(C)O	16 µg/mL (≈ 14.6 µM)	0.25 µg/mL (≈ 0.229 µM)	< 0.03 µg/mL	0.25 µg/mL (≈ 0.229 µM)
CCCCCNC(=O)O[C@@H]1[C@@H](C)N(C)C[C@H](C)C[C@](C)(O)[C@H](O[C@@H]2O[C@H](C)C[C@H](N(C)C)[C@H]2O)[C@@H](C)[C@H](O[C@H]2C[C@@](C)(OC)[C@@H](OC(=O)NCCc3ccccc3Cl)[C@H](C)O2)[C@@H](C)C(=O)O[C@H](CC)[C@@]1(C)O	16 µg/mL (≈ 15.3 µM)	0.5 µg/mL (≈ 0.479 µM)	< 0.03 µg/mL	0.5 µg/mL (≈ 0.479 µM)
CC[C@H]1OC(=O)[C@H](C)[C@@H](O[C@H]2C[C@@](C)(OC)[C@@H](OC(=O)NCCc3ccc(O)cc3)[C@H](C)O2)[C@H](C)[C@@H](O[C@@H]2O[C@H](C)C[C@H](N(C)C)[C@H]2O)[C@@](C)(O)C[C@@H](C)CN(C)[C@H](C)[C@H]2OC(=O)O[C@@]21C	4 µg/mL (≈ 4.26 µM)	8 µg/mL (≈ 8.53 µM)	< 0.03 µg/mL	1 µg/mL (≈ 1.07 µM)
CC[C@H]1OC(=O)[C@H](C)[C@@H](O[C@H]2C[C@@](C)(OC)[C@@H](OC(=O)NCc3ccc(F)cc3)[C@H](C)O2)[C@H](C)[C@@H](O[C@@H]2O[C@H](C)C[C@H](N(C)C)[C@H]2O)[C@@](C)(O)C[C@@H](C)CN(C)[C@H](C)[C@H]2OC(=O)O[C@@]21C	4 µg/mL (≈ 4.32 µM)	8 µg/mL (≈ 8.64 µM)	0.06 µg/mL (≈ 0.0648 µM)	0.06 µg/mL (≈ 0.0648 µM)
CC[C@H]1OC(=O)[C@H](C)[C@@H](O[C@H]2C[C@@](C)(OC)[C@@H](OC(=O)NCCc3ccccc3Cl)[C@H](C)O2)[C@H](C)[C@@H](O[C@@H]2O[C@H](C)C[C@H](N(C)C)[C@H]2O)[C@@](C)(O)C[C@@H](C)CN(C)[C@H](C)[C@H]2OC(=O)O[C@@]21C	2 µg/mL (≈ 2.09 µM)	8 µg/mL (≈ 8.36 µM)	0.06 µg/mL (≈ 0.0627 µM)	0.25 µg/mL (≈ 0.261 µM)
CC[C@H]1OC(=O)[C@H](C)[C@@H](O[C@H]2C[C@@](C)(OC)[C@@H](OC(=O)NCc3ccccc3)[C@H](C)O2)[C@H](C)[C@@H](O[C@@H]2O[C@H](C)C[C@H](N(C)C)[C@H]2O)[C@@](C)(O)C[C@@H](C)CN(C)[C@H](C)[C@H]2OC(=O)O[C@@]21C	8 µg/mL (≈ 8.81 µM)	8 µg/mL (≈ 8.81 µM)	< 0.03 µg/mL	0.12 µg/mL (≈ 0.132 µM)
CC[C@H]1OC(=O)[C@H](C)[C@@H](O[C@H]2C[C@@](C)(OC)[C@@H](OC(=O)NCCc3ccc4c(c3)OCO4)[C@H](C)O2)[C@H](C)[C@@H](O[C@@H]2O[C@H](C)C[C@H](N(C)C)[C@H]2O)[C@@](C)(O)C[C@@H](C)CN(C)C(C)[C@H]2OC(=O)O[C@@]21C (stereo partly specified)	2 µg/mL (≈ 2.07 µM)	4 µg/mL (≈ 4.14 µM)	< 0.03 µg/mL	0.06 µg/mL (≈ 0.0621 µM)
C=CCNC(=O)O[C@H]1[C@H](C)O[C@@H](O[C@H]2[C@H](C)[C@@H](O[C@@H]3O[C@H](C)C[C@H](N(C)C)[C@H]3O)[C@@](C)(O)C[C@@H](C)CN(C)[C@H](C)[C@H]3OC(=O)O[C@]3(C)[C@@H](CC)OC(=O)[C@@H]2C)C[C@@]1(C)OC	128 µg/mL (≈ 149 µM)	64 µg/mL (≈ 74.6 µM)	0.12 µg/mL (≈ 0.14 µM)	1 µg/mL (≈ 1.17 µM)
CCCCCNC(=O)O[C@H]1[C@H](C)O[C@@H](O[C@H]2[C@H](C)[C@@H](O[C@@H]3O[C@H](C)C[C@H](N(C)C)[C@H]3O)[C@@](C)(O)C[C@@H](C)CN(C)[C@H](C)[C@H]3OC(=O)O[C@]3(C)[C@@H](CC)OC(=O)[C@@H]2C)C[C@@]1(C)OC	16 µg/mL (≈ 18 µM)	16 µg/mL (≈ 18 µM)	0.06 µg/mL (≈ 0.0676 µM)	8 µg/mL (≈ 9.01 µM)
CC[C@H]1OC(=O)[C@H](C)[C@@H](O[C@H]2C[C@@](C)(OC)[C@@H](OC(=O)NC(C)C)[C@H](C)O2)[C@H](C)[C@@H](O[C@@H]2O[C@H](C)C[C@H](N(C)C)[C@H]2O)[C@@](C)(O)C[C@@H](C)CN(C)[C@H](C)[C@H]2OC(=O)O[C@@]21C	128 µg/mL (≈ 149 µM)	16 µg/mL (≈ 18.6 µM)	0.12 µg/mL (≈ 0.14 µM)	8 µg/mL (≈ 9.3 µM)
CC[C@H]1OC(=O)[C@H](C)[C@@H](O[C@H]2C[C@@](C)(OC)[C@@H](OC(=O)NC3CCCCC3)[C@H](C)O2)[C@H](C)[C@@H](O[C@@H]2O[C@H](C)C[C@H](N(C)C)[C@H]2O)[C@@](C)(O)C[C@@H](C)CN(C)[C@H](C)[C@H]2OC(=O)O[C@@]21C	32 µg/mL (≈ 35.5 µM)	16 µg/mL (≈ 17.8 µM)	0.06 µg/mL (≈ 0.0667 µM)	2 µg/mL (≈ 2.22 µM)
CCCCNC(=O)O[C@@H]1[C@@H](C)N(C)C[C@H](C)C[C@](C)(O)[C@H](O[C@@H]2O[C@H](C)C[C@H](N(C)C)[C@H]2O)[C@@H](C)[C@H](O[C@H]2C[C@@](C)(OC)[C@@H](OC(=O)NCCc3ccc(O)cc3)[C@H](C)O2)[C@@H](C)C(=O)O[C@H](CC)[C@@]1(C)O	128 µg/mL (≈ 127 µM)	0.25 µg/mL (≈ 0.247 µM)	< 0.03 µg/mL	1 µg/mL (≈ 0.989 µM)
CC[C@H]1OC(=O)[C@H](C)[C@@H](O[C@H]2C[C@@](C)(OC)[C@@H](OC(=O)NCCc3ccc(O)cc3)[C@H](C)O2)[C@H](C)[C@@H](O[C@@H]2O[C@H](C)C[C@H](N(C)C)[C@H]2O)[C@@](C)(O)C[C@@H](C)CN(C)[C@H](C)[C@@H](OC(=O)NCc2ccccc2)[C@]1(C)O	128 µg/mL (≈ 122 µM)	0.25 µg/mL (≈ 0.239 µM)	< 0.03 µg/mL	0.12 µg/mL (≈ 0.115 µM)
CCCCCNC(=O)O[C@@H]1[C@@H](C)N(C)C[C@H](C)C[C@](C)(O)[C@H](O[C@@H]2O[C@H](C)C[C@H](N(C)C)[C@H]2O)[C@@H](C)[C@H](O[C@H]2C[C@@](C)(OC)[C@@H](OC(=O)NCc3ccc(OC)cc3)[C@H](C)O2)[C@@H](C)C(=O)O[C@H](CC)[C@@]1(C)O	32 µg/mL (≈ 31.2 µM)	0.5 µg/mL (≈ 0.488 µM)	0.06 µg/mL (≈ 0.0585 µM)	1 µg/mL (≈ 0.975 µM)
CCCCNC(=O)O[C@@H]1[C@@H](C)N(C)C[C@H](C)C[C@](C)(O)[C@H](O[C@@H]2O[C@H](C)C[C@H](N(C)C)[C@H]2O)[C@@H](C)[C@H](O[C@H]2C[C@@](C)(OC)[C@@H](OC(=O)NCc3ccc(OC)cc3)[C@H](C)O2)[C@@H](C)C(=O)O[C@H](CC)[C@@]1(C)O	128 µg/mL (≈ 127 µM)	0.5 µg/mL (≈ 0.494 µM)	0.06 µg/mL (≈ 0.0593 µM)	1 µg/mL (≈ 0.989 µM)
CC[C@H]1OC(=O)[C@H](C)[C@@H](O[C@H]2C[C@@](C)(OC)[C@@H](OC(=O)NCc3ccc(F)cc3)[C@H](C)O2)[C@H](C)[C@@H](O[C@@H]2O[C@H](C)C[C@H](N(C)C)[C@H]2O)[C@@](C)(O)C[C@@H](C)CN(C)[C@H](C)[C@@H](OC(=O)NCCc2ccccc2Cl)[C@]1(C)O	2 µg/mL (≈ 1.85 µM)	0.25 µg/mL (≈ 0.231 µM)	< 0.03 µg/mL	0.12 µg/mL (≈ 0.111 µM)
CC[C@H]1OC(=O)[C@H](C)[C@@H](O[C@H]2C[C@@](C)(OC)[C@@H](OC(=O)NCCc3ccccc3Cl)[C@H](C)O2)[C@H](C)[C@@H](O[C@@H]2O[C@H](C)C[C@H](N(C)C)[C@H]2O)[C@@](C)(O)C[C@@H](C)CN(C)[C@H](C)[C@@H](OC(=O)NCc2ccccc2)[C@]1(C)O	4 µg/mL (≈ 3.76 µM)	0.25 µg/mL (≈ 0.235 µM)	< 0.03 µg/mL	0.25 µg/mL (≈ 0.235 µM)
CC[C@H]1OC(=O)[C@H](C)[C@@H](O[C@H]2C[C@@](C)(OC)[C@@H](OC(=O)NCCc3ccccc3Cl)[C@H](C)O2)[C@H](C)[C@@H](O[C@@H]2O[C@H](C)C[C@H](N(C)C)[C@H]2O)[C@@](C)(O)C[C@@H](C)CN(C)[C@H](C)[C@@H](OC(=O)NCc2ccc(F)cc2)[C@]1(C)O	4 µg/mL (≈ 3.7 µM)	0.25 µg/mL (≈ 0.231 µM)	0.06 µg/mL (≈ 0.0555 µM)	0.25 µg/mL (≈ 0.231 µM)
